Measurements from patent publication EP4549424A1, “NEW LITHIUM EXTRACTING AGENT AND LIQUID ORGANIC MIXTURE THEREOF, AND METHOD FOR EXTRACTING LITHIUM BY MEANS OF EXTRACTION” (Beijing Salt Lake Technology Development Company Limited, priority 2022, dated 2024).
Values after ≈ are worked out from the molar mass of the structure shown. Where two headings read alike, the source gives them in different places.

Legend:
[1] = Liquid-liquid extraction from aqueous lithium-containing solution, ICP detection: lithium;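 also: component concentrations in the aqueous phase were measured by inductively coupled plasma optical emission spectrometry after shaking and phase separation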
[2] = Liquid-liquid extraction from aqueous lithium-containing solution, ICP detection: sodium;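 also: sodium measured by inductively coupled plasma optical emission spectrometry in the diluted aqueous phase left after shaking with the organic phase and phase separation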
[3] = pH of aqueous phase after extraction or stripping
[4] = Liquid-liquid extraction from aqueous lithium-containing solution, ICP detection: potassium; conditions: organic phase and phase ratio per example;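 also: analysis by ICP optical emission spectrometry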
[5] = pH 11.48
[6] = pH 11.48; remark: listed apart in the source
[7] = room temperature; public literature (www.chemicalbook.com; J. Chem. Eng. Data 2008, 53, 8, 1996-1998); cited from earlier work
[8] = physchem
Method: The solution loss rate is evaluated through solubility in water.

[9] = feed B1 (cLi 0.807, cNa 56.12 g/L, pH 11.48), organic phase and phase ratio per example
[10] = feed B7 (cLi 0.833, cNa 55.60, cK 5.37 g/L, pH 12.05), 26°C
[11] = feed B7 (cLi 0.833, cNa 55.60, cK 5.37 g/L, pH 12.05), 26°C, organic phase and phase ratio per example
[12] = feed B3 (cLi 0.937, cNa 119.10, cK 43.03 g/L, pH 9.60), organic phase and phase ratio per example

2-hydroxy-2-phenylacetophenone [Example 41]
extraction rate for lithium ions [1, 9]: 69.3% | separation factor of Li/Na [1, 9]: 16.8 | extraction rate for sodium ions [2, 9]: 11.8% | pH, remaining aqueous phase R1 ([3]; feed B1 (pH 11.48)): 10.1

2-hydroxy-5-methoxyacetophenone [Example 30]
extraction rate for potassium ions [4, 10]: 7.08% | extraction rate for lithium ions [1, 11]: 60.26% | separation factor of Li/Na [1, 11]: 12.4 | extraction rate for sodium ions [2, 11]: 10.86% | pH, remaining aqueous phase R1 ([3]; feed B7 (pH 12.05)): 10.30

2-hydroxydibenzophenone [Example 1]
cLi, remaining aqueous phase R1 [5]: 0.257 g/L | extraction rate for lithium ions ([1]; pH 11.48): 68.2% | separation factor of Li/Na ([1]; pH 11.48): 19.2 | extraction rate for sodium ions ([2]; pH 11.48): 10% | pH, remaining aqueous phase R1 ([3]; feed B1 (pH 11.48)): 10.12 | cNa, remaining aqueous phase R1 [6]: 50.50 g/L

O=C(c1ccccc1)c1ccc(O)cc1O [2,4-dihydroxydibenzophenone]
solubility in pure water [7]: 700 µg/mL (≈ 3270 µM)

COc1ccc(C(=O)c2ccccc2)c(O)c1 [2-hydroxy-4-methoxydibenzophenone]
solubility ([8]; water): < 1000 µg/mL

CCCCCCCCOc1cc(O)c(C(=O)c2ccccc2)cc1[N+](=O)[O-] [2-hydroxy-4-octyloxy-5-nitrodibenzophenone]
solubility in pure water [8]: 10 µg/mL (≈ 26.9 µM)

CCCCCCCCOc1ccc(C(=O)c2ccccc2)c(O)c1[N+](=O)[O-] [4-octyloxy-3-nitro-2-hydroxydibenzophenone]
solubility in pure water [8]: 10 µg/mL (≈ 26.9 µM)

CCCCCOc1ccc(C(=O)c2ccccc2)c(O)c1 [4-pentyloxy-2-hydroxydibenzophenone]
solubility in pure water [8]: 50 µg/mL (≈ 176 µM)

O=C(c1ccccc1)c1cc([N+](=O)[O-])c(OCc2ccccc2)cc1O [Example 12, 4-benzyloxy-5-nitro-2-hydroxydibenzophenone]
extraction rate for potassium ions ([4]; feed B3 (cLi 0.937, cNa 119.10, cK 43.03 g/L, pH 9.60)): 8.3% | extraction rate for lithium ions [1, 12]: 85.7% | separation factor of Li/K [1, 12]: 66.0 | separation factor of Li/Na [1, 12]: 53.4 | extraction rate for sodium ions [2, 12]: 10.1% | pH, remaining aqueous phase R1 ([3]; feed B3 (pH 9.60)): 8.66

CC(=O)c1cc(I)ccc1O [Example 39, 2-hydroxy-5-iodoacetophenone]
extraction rate for potassium ions [4, 10]: 8.5% | extraction rate for lithium ions [1, 11]: 48% | separation factor of Li/Na [1, 11]: 8 | extraction rate for sodium ions [2, 11]: 10.3%

O=C(CC(=O)C(F)(F)F)c1ccccc1 [benzoyltrifluoroacetone]
solubility in pure water [7]: 240 µg/mL (≈ 1110 µM)
